Measurements taken from patent US20180118707A1, “BETA-NAPHTHOISOFLAVONES, COMPOSITIONS CONTAINING, AND USES OF, SAME” (Thesan Pharmaceuticals, Inc., priority 2015, published 2018).

What was measured:
Assay type in all cases: cell-based
[1] = target: T1, Aryl Hydrocarbon Receptor (Homo sapiens, UniProt P35869); experiment: AhR activation luciferase reporter in NHK-plox-XRE TATA-Luc cells; details: treatment for 24 h with 1-10 uM
T1 construct: endogenous in cells; host or cells: Normal human keratinocytes (NHK) transduced with the lentivector plox-XRE TATA-Luc (reporter only)
T1 sequence (P35869 11-848): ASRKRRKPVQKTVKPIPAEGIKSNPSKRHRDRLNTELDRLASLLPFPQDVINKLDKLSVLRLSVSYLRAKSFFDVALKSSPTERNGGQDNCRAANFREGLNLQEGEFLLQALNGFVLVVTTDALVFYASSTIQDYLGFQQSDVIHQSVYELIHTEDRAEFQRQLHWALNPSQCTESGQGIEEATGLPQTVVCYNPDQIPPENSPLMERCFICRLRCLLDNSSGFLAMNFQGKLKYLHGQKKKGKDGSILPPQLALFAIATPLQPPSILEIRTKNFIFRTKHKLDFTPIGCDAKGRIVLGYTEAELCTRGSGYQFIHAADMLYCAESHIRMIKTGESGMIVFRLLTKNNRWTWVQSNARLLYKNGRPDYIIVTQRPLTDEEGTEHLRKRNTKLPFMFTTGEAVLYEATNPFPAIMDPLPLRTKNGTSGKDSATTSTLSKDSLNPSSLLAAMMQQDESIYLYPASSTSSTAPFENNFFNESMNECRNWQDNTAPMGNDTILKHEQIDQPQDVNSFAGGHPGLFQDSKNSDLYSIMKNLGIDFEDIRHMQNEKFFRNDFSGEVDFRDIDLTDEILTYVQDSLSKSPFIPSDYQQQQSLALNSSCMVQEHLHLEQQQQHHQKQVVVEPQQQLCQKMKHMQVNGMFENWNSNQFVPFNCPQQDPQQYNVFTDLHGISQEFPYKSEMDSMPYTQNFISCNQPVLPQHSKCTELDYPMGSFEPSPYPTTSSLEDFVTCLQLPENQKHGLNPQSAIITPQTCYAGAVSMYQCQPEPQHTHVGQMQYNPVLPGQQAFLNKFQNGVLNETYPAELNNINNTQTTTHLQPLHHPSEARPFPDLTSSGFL
Procedure: AhR activation is also measured in human skin cells such as normal human keratinocytes (NHK cells) or A431 epidermoid cells stably transfected with the lentivector plox-XRE TATA-Luc. The NHK cells are cultured in a specific keratinocyte SFM medium (Glbco)+penicillin+streptomycin. At D0, the NHK cells are seeded Into 6-well plates in a proportion of approximately 15,000 cells/cm^2. After 24 h, the medium is replaced with fresh medium and the cells are transduced with the lentivector plox-XRE TATA-Luc. After 48 h, the cells are subcultured and maintained in culture, and tested for their reactivity to 3-phenyl-1H-benzo[f]chromen-1-one. The tests are carried out using the luciferase reporter assay system kit from Promega. At D0, the cells are seeded at a density of approximately 60% confluence, and then treated, at D1, with the test substance diluted to various concentrations in the appropriate culture medium. At D2, the cells are lysed in CLB buffer, and the lysate is clarified by centrifugation for 5 min at 10 000 g. The luciferase activity is measured in 20 microliters of lysate as recommended by the supplier, using the luminoskan luminometer (Thermo). […] Data is processed and ECso's can be calculated from standard data monitoring software.

[2] = target: T1, Aryl Hydrocarbon Receptor; experiment: AhR activation luciferase reporter in Hep G2-plox-XRE TATA-Luc cells; details: treatment for 24 h with 1-10 uM
Procedure: AhR activation is measured in HEP G2 cells (hepatocytes, Hep G2 is a human liver carcinoma cell line) stably transfected with the lentivector plox-XRE TATA-Luc. The Hep G2 cells are cultured in a growing media consisting of DM EM (Glbco)+10% fetal bovine serum+penicillin+streptomycin. At D0, the Hep G2 cells are seeded into 12-well plates in proportions of approximately 30,000 cells/cm^2. After 24 h, the medium is replaced with fresh medium and the cells are transduced with the lentivector plox-XRE TATA-Luc. After 48 h, the cells are subcultured and maintained in culture, and tested for their reactivity to 3-phenyl-1H-benzo[f]chromen-1-one. The tests are carried out using the luciferase reporter assay system kit from Promega. At D0, the cells are seeded at a density of approximately 60% confluence, and then treated, at D1, with the test substance diluted to various concentrations in the appropriate culture medium. At D2, the cells are lysed in CLB buffer, and the lysate is clarified by centrifugation for 5 min at 10 000 g. The luciferase activity is measured in 20 microliters of lysate as recommended by the supplier, using the luminoskan luminometer (Thermo). […] Data is processed and ECso's can be calculated from standard data monitoring software.

CYP1A1 = experiment: Induction of CYP1A1 enzyme in human cultured sebocytes, EROD assay; details: cultured sebocytes, probe 7-ethoxyresorufin (8 μM)
Procedure: (§1) Cells are seeded at between 1×10^4 and 2.5×10^4 cells/well in a 96-well microtitre plate. […] 100 μl of medium is then transferred to a fresh black 96-well plate and 130 μl methanol added. The formation of resorufin is quantified by fluorometry with a fluorescence plate reader. Fluorescence is determined at λex 570 nm and λem 590 nm. The amount of resorufin is calculated from a standard curve generated using 0 to 1 μM resorufin in water at ½ log dilutions. The remaining (i.e. all cells present at the beginning of analysis, since only supernatant is taken to assay EROD) live cells are subsequently utilized for the MU cytotoxicity assay. MU is made up in serum-free medium at 5 mg/mi. then added to the cells giving a final concentration of 10% (0.5 mg/ml MIT final) then incubated for 2 h. The medium is carefully removed, then MIT formazan is solubilized by adding 200 μl of DMSO and subsequently mixed on a plate shaker. The absorbance is measured spectrophotometrically at 550 nm and background absorbance at […] is subtracted. A standard curve generated using MTT formazan (dissolved in DMSO) from O—200 μM (0, 2, 5, 10, 20, 50, 100, 200 μM) is used to calculate the final experimental values which are then expressed as (μmol resorufin/mol MTT formazan) or as fold-induction compared to solvent.

CYP1A1 enzyme = experiment: as above; details: 10 uM, 24 h
Procedure: as §1

O=c1cc(-c2ccccc2)oc2ccc3ccccc3c12 [D, 3-Phenyl-1H-benzo[f]chromen-1-one, reference compound]
induction of luciferase activity [1]: significant induction | induction of the luciferase activity [2]: significant induction | EC50 at 24 h (CYP1A1): 1000 nM | % change vs. TCDD EROD (Sebs) at 10 uM (CYP1A1 enzyme): 17%
